Test system: SEM cells
Experiment: cell viability relative to DMSO control; higher = less cytotoxic
Conditions: 48 h
Summary of the method: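 NOMO1 or SEM (500 cells/well) or P12-Ichikawa (1000 cells/well) leukemia cells were adapted for at least four passages in each medium. They were seeded in 1536-well plates (5 μl) and pin-dosed with library compounds in DMSO over an 11-point threefold series, 47 μM to 0.79 nM. CellTiter-Glo One luminescence was read after 48 h at 37°C. Viability is the per-plate percentage relative to DMSO wells, with cell-free wells as background.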

[1] = HPLM + 10% dialyzed FBS, 0.000781 µM
[2] = HPLM + 10% dialyzed FBS, 0.00234 µM
[3] = HPLM + 10% dialyzed FBS, 0.00702 µM
[4] = HPLM + 10% dialyzed FBS, 0.0211 µM
[5] = HPLM + 10% dialyzed FBS, 0.0632 µM
[6] = HPLM + 10% dialyzed FBS, 0.19 µM
[7] = HPLM + 10% dialyzed FBS, 0.569 µM
[8] = HPLM + 10% dialyzed FBS, 1.71 µM
[9] = HPLM + 10% dialyzed FBS, 5.12 µM
[10] = HPLM + 10% dialyzed FBS, 15.4 µM
[11] = HPLM + 10% dialyzed FBS, 46.1 µM
[12] = RPMI 5 mM glucose + 10% FBS, 0.000781 µM
[13] = RPMI 5 mM glucose + 10% FBS, 0.00234 µM
[14] = RPMI 5 mM glucose + 10% FBS, 0.00702 µM
[15] = RPMI 5 mM glucose + 10% FBS, 0.0211 µM
[16] = RPMI 5 mM glucose + 10% FBS, 0.0632 µM
[17] = RPMI 5 mM glucose + 10% FBS, 0.19 µM
[18] = RPMI 5 mM glucose + 10% FBS, 0.569 µM
[19] = RPMI 5 mM glucose + 10% FBS, 1.71 µM
[20] = RPMI 5 mM glucose + 10% FBS, 5.12 µM
[21] = RPMI 5 mM glucose + 10% FBS, 15.4 µM
[22] = RPMI 5 mM glucose + 10% FBS, 46.1 µM
[23] = RPMI 5 mM glucose + 10% dialyzed FBS, 0.000781 µM
[24] = RPMI 5 mM glucose + 10% dialyzed FBS, 0.00234 µM
[25] = RPMI 5 mM glucose + 10% dialyzed FBS, 0.00702 µM
[26] = RPMI 5 mM glucose + 10% dialyzed FBS, 0.0211 µM
[27] = RPMI 5 mM glucose + 10% dialyzed FBS, 0.0632 µM
[28] = RPMI 5 mM glucose + 10% dialyzed FBS, 0.19 µM
[29] = RPMI 5 mM glucose + 10% dialyzed FBS, 0.569 µM
[30] = RPMI 5 mM glucose + 10% dialyzed FBS, 1.71 µM
[31] = RPMI 5 mM glucose + 10% dialyzed FBS, 5.12 µM
[32] = RPMI 5 mM glucose + 10% dialyzed FBS, 15.4 µM
[33] = RPMI 5 mM glucose + 10% dialyzed FBS, 46.1 µM

## C[C@@H](Oc1ccc2[nH]nc(/C=C/c3cnn(CCO)c3)c2c1)c1c(Cl)cncc1Cl
[1]
  cell viability: 90.3%
[2]
  cell viability: 86.4%
[3]
  cell viability: 85.9%
[4]
  cell viability: 85.9%
[5]
  cell viability: 85.6%
[6]
  cell viability: 58.6%
[7]
  cell viability: 31.3%
[8]
  cell viability: 37.2%
[9]
  cell viability: 20%
[10]
  cell viability: 14.8%
[11]
  cell viability: 30.9%
[12]
  cell viability: 118%
[13]
  cell viability: 136%
[14]
  cell viability: 103%
[15]
  cell viability: 103%
[16]
  cell viability: 108%
[17]
  cell viability: 75.5%
[18]
  cell viability: 32.7%
[19]
  cell viability: 42.8%
[20]
  cell viability: 15.6%
[21]
  cell viability: 13.8%
[22]
  cell viability: 21%
[23]
  cell viability: 82.4%
[24]
  cell viability: 84.6%
[25]
  cell viability: 82%
[26]
  cell viability: 73.5%
[27]
  cell viability: 80%
[28]
  cell viability: 50.9%
[29]
  cell viability: 17.5%
[30]
  cell viability: 33.7%
[31]
  cell viability: 12.4%
[32]
  cell viability: 10.9%
[33]
  cell viability: 20.9%

## OCCN1CCN(CCCN2c3ccccc3Sc3ccc(C(F)(F)F)cc32)CC1
[1]
  cell viability: 85.3%
[2]
  cell viability: 90%
[3]
  cell viability: 80.6%
[4]
  cell viability: 34.4%
[5]
  cell viability: 104%
[6]
  cell viability: 110%
[7]
  cell viability: 7.1%
[8]
  cell viability: 37.4%
[9]
  cell viability: 88.7%
[10]
  cell viability: 49.5%
[11]
  cell viability: 47.8%
[12]
  cell viability: 74.8%
[13]
  cell viability: 89.4%
[14]
  cell viability: 85.7%
[15]
  cell viability: 36%
[16]
  cell viability: 96.2%
[17]
  cell viability: 122%
[18]
  cell viability: 7.38%
[19]
  cell viability: 21.4%
[20]
  cell viability: 102%
[21]
  cell viability: 47.6%
[22]
  cell viability: 34.1%
[23]
  cell viability: 76.3%
[24]
  cell viability: 87.2%
[25]
  cell viability: 86.3%
[26]
  cell viability: 74.5%
[27]
  cell viability: 84%
[28]
  cell viability: 115%
[29]
  cell viability: 13.7%
[30]
  cell viability: 31.1%
[31]
  cell viability: 92.3%
[32]
  cell viability: 46.3%
[33]
  cell viability: 35.9%

## O=P1(NCCCl)OCCCN1CCCl (centres undefined)
[1]
  cell viability: 88.9%
[2]
  cell viability: 85.6%
[3]
  cell viability: 92.8%
[4]
  cell viability: 101%
[5]
  cell viability: 76.1%
[6]
  cell viability: 81.2%
[7]
  cell viability: 78%
[8]
  cell viability: 84.7%
[9]
  cell viability: 81.3%
[10]
  cell viability: 63%
[11]
  cell viability: 12.5%
[12]
  cell viability: 92.6%
[13]
  cell viability: 99.5%
[14]
  cell viability: 101%
[15]
  cell viability: 103%
[16]
  cell viability: 96.8%
[17]
  cell viability: 94.4%
[18]
  cell viability: 97.1%
[19]
  cell viability: 94.2%
[20]
  cell viability: 105%
[21]
  cell viability: 57.3%
[22]
  cell viability: 7.96%
[23]
  cell viability: 87.6%
[24]
  cell viability: 86%
[25]
  cell viability: 94.8%
[26]
  cell viability: 81.9%
[27]
  cell viability: 65.5%
[28]
  cell viability: 69.1%
[29]
  cell viability: 60.6%
[30]
  cell viability: 69.5%
[31]
  cell viability: 66.4%
[32]
  cell viability: 45%
[33]
  cell viability: 10.8%

## Cc1ccnc(N[S+](=O)([O-])c2ccc(NC(=O)Nc3ccc([S+](=O)([O-])Nc4nccc(C)n4)cc3)cc2)n1
[1]
  cell viability: 77.9%
[2]
  cell viability: 90.3%
[3]
  cell viability: 89.8%
[4]
  cell viability: 90.1%
[5]
  cell viability: 86.8%
[6]
  cell viability: 38.8%
[7]
  cell viability: 35.6%
[8]
  cell viability: 10.6%
[9]
  cell viability: 8.5%
[10]
  cell viability: 7.84%
[11]
  cell viability: 6.37%
[12]
  cell viability: 86.6%
[13]
  cell viability: 73.1%
[14]
  cell viability: 79.4%
[15]
  cell viability: 75.2%
[16]
  cell viability: 64.8%
[17]
  cell viability: 9.99%
[18]
  cell viability: 8.62%
[19]
  cell viability: 6.14%
[20]
  cell viability: 6.29%
[21]
  cell viability: 5.29%
[22]
  cell viability: 3.81%
[23]
  cell viability: 77.8%
[24]
  cell viability: 86.7%
[25]
  cell viability: 87.7%
[26]
  cell viability: 85.8%
[27]
  cell viability: 77.5%
[28]
  cell viability: 21.9%
[29]
  cell viability: 19.7%
[30]
  cell viability: 8.34%
[31]
  cell viability: 8.01%
[32]
  cell viability: 7.59%
[33]
  cell viability: 5.43%

## CC1(C)NC(=O)N(c2ccc([N+](=O)[O-])c(C(F)(F)F)c2)C1=O
[1]
  cell viability: 88.7%
[2]
  cell viability: 89.7%
[3]
  cell viability: 82.5%
[4]
  cell viability: 90.8%
[5]
  cell viability: 96.9%
[6]
  cell viability: 44.9%
[7]
  cell viability: 94%
[8]
  cell viability: 90.8%
[9]
  cell viability: 81%
[10]
  cell viability: 87.4%
[11]
  cell viability: 84.6%
[12]
  cell viability: 98.7%
[13]
  cell viability: 79.5%
[14]
  cell viability: 92.9%
[15]
  cell viability: 96.7%
[16]
  cell viability: 104%
[17]
  cell viability: 86%
[18]
  cell viability: 99.6%
[19]
  cell viability: 94.9%
[20]
  cell viability: 110%
[21]
  cell viability: 87.7%
[22]
  cell viability: 93.9%
[23]
  cell viability: 99.4%
[24]
  cell viability: 91%
[25]
  cell viability: 101%
[26]
  cell viability: 109%
[27]
  cell viability: 96.3%
[28]
  cell viability: 74.5%
[29]
  cell viability: 104%
[30]
  cell viability: 106%
[31]
  cell viability: 106%
[32]
  cell viability: 78.9%
[33]
  cell viability: 90%

## CC(C)C[C@@H](C(=O)N[C@H](C(=O)OC1CCCC1)c1ccccc1)[C@H](O)C(=O)NO
[1]
  cell viability: 125%
[2]
  cell viability: 119%
[3]
  cell viability: 123%
[4]
  cell viability: 136%
[5]
  cell viability: 120%
[6]
  cell viability: 122%
[7]
  cell viability: 117%
[8]
  cell viability: 89.2%
[9]
  cell viability: 105%
[10]
  cell viability: 104%
[11]
  cell viability: 38%
[23]
  cell viability: 113%
[24]
  cell viability: 113%
[25]
  cell viability: 111%
[26]
  cell viability: 114%
[27]
  cell viability: 102%
[28]
  cell viability: 106%
[29]
  cell viability: 101%
[30]
  cell viability: 72.8%
[31]
  cell viability: 83.4%
[32]
  cell viability: 65.9%
[33]
  cell viability: 23.2%

## Cc1ccc(C)c(OCCCC(C)(C)C(=O)O)c1
[1]
  cell viability: 83.8%
[2]
  cell viability: 81.2%
[3]
  cell viability: 99.6%
[4]
  cell viability: 85.3%
[5]
  cell viability: 97.3%
[6]
  cell viability: 94.9%
[7]
  cell viability: 92.5%
[8]
  cell viability: 92.7%
[9]
  cell viability: 92.6%
[10]
  cell viability: 98.5%
[11]
  cell viability: 96.8%
[12]
  cell viability: 97.1%
[13]
  cell viability: 87.2%
[14]
  cell viability: 87.9%
[15]
  cell viability: 97.9%
[16]
  cell viability: 94.8%
[17]
  cell viability: 103%
[18]
  cell viability: 88.7%
[19]
  cell viability: 93.9%
[20]
  cell viability: 103%
[21]
  cell viability: 103%
[22]
  cell viability: 92.1%
[23]
  cell viability: 91%
[24]
  cell viability: 104%
[25]
  cell viability: 93.1%
[26]
  cell viability: 90.7%
[27]
  cell viability: 104%
[28]
  cell viability: 91.9%
[29]
  cell viability: 102%
[30]
  cell viability: 87.1%
[31]
  cell viability: 99.5%
[32]
  cell viability: 108%
[33]
  cell viability: 95.5%

## CC(C)(OCc1nn(Cc2ccccc2)c2ccccc12)C(=O)O
[1]
  cell viability: 100%
[2]
  cell viability: 101%
[3]
  cell viability: 95.4%
[4]
  cell viability: 103%
[5]
  cell viability: 116%
[6]
  cell viability: 97.4%
[7]
  cell viability: 108%
[8]
  cell viability: 100%
[9]
  cell viability: 97.5%
[10]
  cell viability: 109%
[11]
  cell viability: 92.6%
[12]
  cell viability: 99.4%
[13]
  cell viability: 95.2%
[14]
  cell viability: 116%
[15]
  cell viability: 101%
[16]
  cell viability: 109%
[17]
  cell viability: 93.9%
[18]
  cell viability: 94%
[19]
  cell viability: 112%
[20]
  cell viability: 109%
[21]
  cell viability: 96%
[22]
  cell viability: 96.5%
[23]
  cell viability: 94.7%
[24]
  cell viability: 103%
[25]
  cell viability: 107%
[26]
  cell viability: 104%
[27]
  cell viability: 97.1%
[28]
  cell viability: 102%
[29]
  cell viability: 115%
[30]
  cell viability: 100%
[31]
  cell viability: 104%
[32]
  cell viability: 103%
[33]
  cell viability: 96.4%

## CCCCC(F)(F)[C@@]1(O)CC[C@H]2[C@@H](CC(=O)[C@@H]2CCCCCCC(=O)O)O1
[1]
  cell viability: 120%
[2]
  cell viability: 124%
[3]
  cell viability: 123%
[4]
  cell viability: 121%
[5]
  cell viability: 112%
[6]
  cell viability: 110%
[7]
  cell viability: 118%
[8]
  cell viability: 116%
[9]
  cell viability: 101%
[10]
  cell viability: 91.6%
[11]
  cell viability: 98.6%

— the supplement of paper PMC11451515
